The record followed here is ChEMBL document CHEMBL1147597, “Synthesis and biological evaluations of novel benzimidazoles as potential antibacterial agents” (Bioorg Med Chem Lett, 2004).

≈ marks a conversion by molar mass, not a printed value.

For test [1], the system named is Bacteria. Briefly: Inhibitory activity against bacteria in the transcription/translation assay. Type of test: functional, organism-based.
Test [2] has as its system Pseudomonas aeruginosa. Briefly: Minimal inhibitory concentration against gram negative Pseudomonas aeruginosa 25416 strain (Range is 6-12 uM). Type of test: functional.
For test [3], the system named is Proteus vulgaris. Briefly: Minimal inhibitory concentration against gram negative Proteus vulgaris 8427 strain (Range is 25-50 uM). It counts as functional.
Test [4] has as its system Enterococcus hirae. Kind of test: Minimal inhibitory concentration against gram positive Enterococcus hirae 29212 strain (Range is 0.75-1.5 uM). It counts as functional.
Test [5] concerns Klebsiella pneumoniae. Briefly: Minimal inhibitory concentration against gram negative Klebsiella pneumoniae 13383 strain (Range is 25-50 uM). Type of test: functional.
The test system of test [6] is Escherichia coli. Briefly: Minimal inhibitory concentration against gram negative Escherichia coli 25922 strain (Range is 12-26 uM). It counts as functional. Conditions: ATCC25922.
Test [7] has as its system Escherichia coli. Kind of test: Minimal inhibitory concentration against Escherichia coli (Range is 12-25 uM). It counts as functional.
Test [8] deals with Streptococcus pyogenes. Briefly: Minimal inhibitory concentration against gram positive Streptococcus pyogenes 49399 strain (Range is 25-50 uM). Type of test: functional.
The subject of test [9] is Staphylococcus aureus. Kind of test: Minimal inhibitory concentration against Staphylococcus aureus (Range is 12-25 uM). Type of test: functional.
For test [10], the system named is Staphylococcus aureus. Briefly: Minimal inhibitory concentration against gram positive Staphylococcus aureus 13709 strain (Range is 3-7 uM). Type of test: functional.
Test [11] has as its system Streptococcus pneumoniae. Briefly: Minimal inhibitory concentration against gram positive Streptococcus pneumoniae 6303 strain (Range is 6-12 uM). It counts as functional.
Test [12] has as its system Staphylococcus aureus. Kind of test: Minimal inhibitory concentration against gram positive Staphylococcus aureus 13709 strain (Range is 6-12 uM). It counts as functional.
For test [13], the system named is Pseudomonas aeruginosa. Kind of test: Minimal inhibitory concentration against gram negative Pseudomonas aeruginosa 25416 strain. It counts as functional.
Test [14] relates to Enterococcus hirae. Kind of test: Minimal inhibitory concentration against gram positive Enterococcus hirae 29212 strain (Range is 1-3 uM). Type of test: functional.
Test [15] relates to Escherichia coli. Briefly: Minimal inhibitory concentration against gram negative Escherichia coli 25922 strain (Range is 25-50 uM). Conditions: ATCC25922. It counts as functional.
The test system of test [16] is Streptococcus pneumoniae. Briefly: Minimal inhibitory concentration against gram positive Streptococcus pneumoniae 6303 strain (Range is 12-25 uM). Type of test: functional.
Test [17] has as its system Staphylococcus aureus. Kind of test: Minimal inhibitory concentration against Staphylococcus aureus (Range is 6-12 uM). Type of test: functional.
Test [18] relates to Proteus vulgaris. Kind of test: Minimal inhibitory concentration against gram negative Proteus vulgaris 8427 strain. Type of test: functional.
Test [19] has as its system Klebsiella pneumoniae. Briefly: Minimal inhibitory concentration against gram negative Klebsiella pneumoniae 13383 strain (Range is 12-25 uM). Type of test: functional.
Test [20] has as its system Streptococcus pyogenes. Briefly: Minimal inhibitory concentration against gram positive Streptococcus pyogenes 49399 strain (Range is 6-12 uM). It counts as functional.
The test system of test [21] is Escherichia coli. Kind of test: Minimal inhibitory concentration against Escherichia coli (Range is 25-50 uM). Type of test: functional.
In test [22] the test system is Pseudomonas aeruginosa. Kind of test: Minimal inhibitory concentration against gram negative Pseudomonas aeruginosa 25416 strain (Range is 12-25 uM). It counts as functional.
Test [23] concerns Escherichia coli. Briefly: Minimal inhibitory concentration against Escherichia coli (Range is 6-12 uM). It counts as functional.
In test [24] the test system is Staphylococcus aureus. Kind of test: Minimal inhibitory concentration against gram positive Staphylococcus aureus 13709 strain (Range is 3-6 uM). Type of test: functional.
The test system of test [25] is Klebsiella pneumoniae. Briefly: Minimal inhibitory concentration against gram negative Klebsiella pneumoniae 13383 strain (Range is 6-12 uM). Type of test: functional.
Test [26] relates to Streptococcus pyogenes. Kind of test: Minimal inhibitory concentration against gram positive Streptococcus pyogenes 49399 strain (Range is 3-6 uM). It counts as functional.
Test [27] has as its system Staphylococcus aureus. Briefly: Minimal inhibitory concentration against Staphylococcus aureus (Range is 3-6 uM). Type of test: functional.
Test [28] relates to Escherichia coli. Briefly: Minimal inhibitory concentration against gram negative Escherichia coli 25922 strain (Range is 6-12 uM). The conditions noted are these: ATCC25922. Type of test: functional.
Test [29] concerns Escherichia coli. Briefly: Minimal inhibitory concentration against Escherichia coli (Range is 3-6 uM). It counts as functional.
The subject of test [30] is Staphylococcus aureus. Briefly: Minimal inhibitory concentration against Staphylococcus aureus (Range is 1-3 uM). It counts as functional.
Test [31] relates to Enterococcus hirae. Kind of test: Minimal inhibitory concentration against gram positive Enterococcus hirae 29212 strain (Range is 25-50 uM). It counts as functional.
For test [32], the system named is Pseudomonas aeruginosa. Briefly: Minimal inhibitory concentration against gram negative Pseudomonas aeruginosa 25416 strain (Range is 50-100 uM). Type of test: functional.
Test [33] relates to Staphylococcus aureus. Briefly: Minimal inhibitory concentration against Staphylococcus aureus (Range is 12-50 uM). Type of test: functional.
Test [34] has as its system Klebsiella pneumoniae. Kind of test: Minimal inhibitory concentration against gram negative Klebsiella pneumoniae 13383 strain (Range is 50-100 uM). It counts as functional.
Test [35] relates to Escherichia coli. Kind of test: Minimal inhibitory concentration against gram negative Escherichia coli 25922 strain. It counts as functional. The conditions noted are these: ATCC25922.
Test [36] has as its system Escherichia coli. Briefly: Minimal inhibitory concentration against Escherichia coli. Type of test: functional.
Test [37] deals with Proteus vulgaris. Briefly: Minimal inhibitory concentration against gram negative Proteus vulgaris 8427 strain (Range is 12-25 uM). It counts as functional.
Test [38] has as its system Escherichia coli. Briefly: Minimal inhibitory concentration against gram negative Escherichia coli 25922 strain (Range is 12-25 uM). Type of test: functional. Conditions: ATCC25922.
The subject of test [39] is Enterococcus hirae. Briefly: Minimal inhibitory concentration against gram positive Enterococcus hirae 29212 strain (Range is 3-6 uM). It counts as functional.
The subject of test [40] is Pseudomonas aeruginosa. Briefly: Minimal inhibitory concentration against gram negative Pseudomonas aeruginosa 25416 strain (Range is 25-50 uM). Type of test: functional.

Usually IC50 stands for the concentration that inhibits the measured activity by half. Low values mean inhibition by little substance, high ones a need for much substance. For orientation: MIC means the least concentration at which growth counts as inhibited. A lower MIC goes with greater potency. In turn, `Clc1cc2nc(C3CCNCC3)n(CCCCCn3c(C4CCNCC4)nc4cc(Cl)c(Cl)cc43)c2cc1Cl` came in with an IC50 in test [1] of 35 µM. Further, the MIC amounted to 12 µM (≈ 7.3 µg/mL) in [2]; 50 µM (≈ 30.4 µg/mL) in [3]; 1.5 µM (≈ 0.913 µg/mL) in test [4]; 50 µM (≈ 30.4 µg/mL) in test [5]; 26 µM (≈ 15.8 µg/mL) in test [6]; 25 µM (≈ 15.2 µg/mL) in test [7]. Also, the MIC in test [8] worked out at 50 µM (≈ 30.4 µg/mL); in test [9], 25 µM (≈ 15.2 µg/mL); in test [10] it was 7 µM (≈ 4.26 µg/mL); in test [11], 12 µM (≈ 7.3 µg/mL).

As to `COc1cc(NC(=O)NNC(=O)Cn2c(C3CCNCC3)nc3cc(Cl)c(Cl)cc32)cc(OC)c1`, the IC50 in [1] was more than 100 µM. The MIC was 12 µM (≈ 6.26 µg/mL) in test [12]; more than 100 µM in test [13]; 3 µM (≈ 1.56 µg/mL) in [14]; 50 µM (≈ 26.1 µg/mL) in [15]; 25 µM (≈ 13 µg/mL) in test [16]; 12 µM (≈ 6.26 µg/mL) in test [17]. Moreover, the MIC in test [18] was more than 100 µM; in test [19], 25 µM (≈ 13 µg/mL); in test [20], 12 µM (≈ 6.26 µg/mL); in test [21], 50 µM (≈ 26.1 µg/mL).

For `Clc1cc2nc(C3CCNCC3)n(Cc3ccc(Cn4c(C5CCNCC5)nc5cc(Cl)c(Cl)cc54)cc3)c2cc1Cl`, the IC50 in test [1] was more than 100 µM. For the same compound, the MIC in test [22] was 25 µM (≈ 16.1 µg/mL); in test [14] it was 3 µM (≈ 1.93 µg/mL); in test [23], 12 µM (≈ 7.71 µg/mL); in [24] it was 6 µM (≈ 3.85 µg/mL); in [25] it was 12 µM (≈ 7.71 µg/mL); in test [26], 6 µM (≈ 3.85 µg/mL). Besides, the MIC in test [11] amounted to 12 µM (≈ 7.71 µg/mL); in test [27], 6 µM (≈ 3.85 µg/mL); in [28], 12 µM (≈ 7.71 µg/mL).

Turning to `NC[C@@H]1O[C@H](O[C@H]2[C@@H](O)[C@H](O[C@@H]3[C@@H](O)[C@H](N)C[C@H](N)[C@H]3O[C@H]3O[C@H](CO)[C@@H](O)[C@H](O)[C@H]3N)O[C@@H]2CO)[C@H](N)[C@@H](O)[C@@H]1O` [PAROMOMYCIN], the MIC in test [29] was determined as 6 µM (≈ 3.69 µg/mL); in test [30], 3 µM (≈ 1.85 µg/mL).

In the case of `O=C1c2ccccc2C(=O)N1CCCCCn1c(C2CCNCC2)nc2cc(Cl)c(Cl)cc21`, the MIC in [31] was determined as 50 µM (≈ 24.3 µg/mL); in test [12] it was 12 µM (≈ 5.82 µg/mL); in test [15], 50 µM (≈ 24.3 µg/mL); in test [16] it was 25 µM (≈ 12.1 µg/mL); in test [3] it was 50 µM (≈ 24.3 µg/mL); in test [32] it was 100 µM (≈ 48.5 µg/mL). Besides, the MIC in [5], in test [8], in test [33] and in [21] was 50 µM (≈ 24.3 µg/mL) in each case. The compound further yielded an IC50 in [1] of 25 µM.

As to `O=C1C=CC(=O)N1CCCCCn1c(C2CCNCC2)nc2cc(Cl)c(Cl)cc21`, the minimum inhibitory concentration (MIC) in test [31] is 50 µM (≈ 21.8 µg/mL); in [12], 12 µM (≈ 5.22 µg/mL); in [13], more than 100 µM; in [34] it was 100 µM (≈ 43.5 µg/mL); in test [17], 12 µM (≈ 5.22 µg/mL); in test [18], more than 100 µM. The MIC in test [8] is 50 µM (≈ 21.8 µg/mL); in [35], more than 100 µM; in [11] it was 12 µM (≈ 5.22 µg/mL); in test [36] it was more than 100 µM. This compound also came in with an IC50 in test [1] of more than 100 µM.

`O=C(Cn1c(C2CCNCC2)nc2cc(Cl)c(Cl)cc21)NNC(=O)NC12C[C@H]3C[C@@H](C1)C[C@@H](C2)C3` returned a concentration for half-maximal inhibition (IC50) in test [1] of more than 100 µM. For the same compound, the MIC in [12] is 12 µM (≈ 6.23 µg/mL); in [13] it was more than 100 µM; in [16], 25 µM (≈ 13 µg/mL); in test [37], 25 µM (≈ 13 µg/mL); in test [17] it was 12 µM (≈ 6.23 µg/mL); in [5] it was 50 µM (≈ 26 µg/mL). Besides, the minimal inhibitory concentration (MIC) in test [7] is 25 µM (≈ 13 µg/mL); in test [38], 25 µM (≈ 13 µg/mL); in [39], 6 µM (≈ 3.12 µg/mL); in test [20], 12 µM (≈ 6.23 µg/mL).

Take `O=C(Cn1c(C2CCNCC2)nc2cc(Cl)c(Cl)cc21)NNC(=O)Nc1ccc2ccccc2c1`: the IC50 in test [1] is more than 100 µM. Further, the MIC came out at 12 µM (≈ 6.14 µg/mL) in test [12]; 25 µM (≈ 12.8 µg/mL) in test [16]; 12 µM (≈ 6.14 µg/mL) in [17]; 50 µM (≈ 25.6 µg/mL) in test [3]; 50 µM (≈ 25.6 µg/mL) in test [40]; 12 µM (≈ 6.14 µg/mL) in test [25]. The MIC in test [7] came to 25 µM (≈ 12.8 µg/mL); in [38], 25 µM (≈ 12.8 µg/mL); in test [39], 6 µM (≈ 3.07 µg/mL); in [20], 12 µM (≈ 6.14 µg/mL).
